Test: Chemical stability of liposomal BPD-MA: potency, degradation products and pH of the reconstituted solution on storage
Type: physicochemical
Details: cryodesiccated liposome formulation
Method: The chemical stability of the constituted dosage form was followed by monitoring the potency, degradation products and pH of the reconstituted solution. The potency of the reconstituted parenteral dosage form was assessed by chromatography with potency calculated on as is basis.

- projected shelf life: at least two years
- period over which potency was maintained (room temperature): at least nine months
Substance: benzoporphyrin derivative monoacid [BPD-MA]

Source: US7135193B2, “Liposome compositions of porphyrin photosensitizers” (QLT, Inc., priority 1992, dated 2006)
